From patent publication US9204640B2, “2-acyloxy-pyrrolin-4-ones” (BAYER INTELLECTUAL PROPERTY GMBH, priority 2011, dated 2015)

Tests used:
Type in all cases: in vivo
Phaedon cochleariae = assay: Phaedon test (PHAECO spray treatment); details: application rate 500 g/ha, after 7 days, Chinese cabbage leaf discs
Outline: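 Chinese cabbage (Brassica pekinensis) leaf discs sprayed with compound diluted in emulsifier-containing water to the desired concentration, then infested with mustard beetle larvae once dry. Mortality in % scored after 7 days or after the desired period (100% = all larvae dead, 0% = none dead).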

Myzus persicae [1] = assay: Myzus test (MYZUPE spray treatment); details: application rate 500 g/ha, after 5 days, Chinese cabbage leaf discs
Outline: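 Chinese cabbage leaf discs carrying all stages of green peach aphid sprayed with compound diluted in emulsifier-containing water to the desired concentration. Mortality scored as % after 5 days, where 100% means all aphids dead and 0% none.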

Myzus persicae [2] = assay: Myzus persicae test (MYZUPE Tau), leaf dipping; details: 20 ppm, 6dat
Procedure: Myzus Persicae Test (MYZUPE Tau) To produce a suitable preparation of active compound, 1 part by weight of active compound is mixed with the stated amount of solvent and emulsifier, and the concentrate is diluted with emulsifier-containing water to the desired concentration. Cabbage leaves (Brassica oleracea) which are heavily infested by the green peach aphid (Myzus persicae) are treated by dipping into the active compound preparation of the desired concentration. After the desired period of time, the kill in % is determined. 100% means that all of the aphids have been killed; 0% means that none of the aphids have been killed.

Setaria viridis = assay: Herbicidal pre-emergence action, SETVI; details: 20 g/ha
Description: 1. Herbicidal Pre-Emergence Action
• Seeds of monocotyledonous and dicotyledonous weed plants and crop plants are placed in wood-fiber pots in sandy loam and covered with soil. The test compounds, formulated in the form of wettable powders (WP), are then, as an aqueous suspension with a water application rate of 600 l/ha (converted), with 0.2% of wetting agent added, applied at various dosages to the surface of the covering soil. • After the treatment, the pots are placed in a greenhouse and kept under good growth conditions for the test plants. The visual assessment of the damage to the test plants is carried out after a trial period of about 3 weeks by comparison with untreated controls (herbicidal activity in percent: 100% activity=the plants have died, 0% activity=like control plants). • In addition to the compounds mentioned above, the following compounds show an activity of 90-100% against Alopecurus myosuroides, Digitaria sanguinalis, Echinocloa crus-galli, Lolium multiflorum, Setaria viridis and Sorghum halapense when applied by the pre-emergence method at 320 g/ha of a.i.: I-a-2, I-a-10, I-a-11, I-a-12.
1. Herbicidal Pre-Emergence Action (Pre)
• Seeds of monocotyledonous and dicotyledonous weed plants and crop plants are placed in wood-fiber pots in sandy loam and covered with soil. The test compounds, formulated in the form of wettable powders (WP) or emulsion concentrates (EC), are then, as an aqueous suspension with a water application rate of 600-800 l/ha (converted), with 0.1-0.2% of wetting agent added, applied at various dosages to the surface of the covering soil. • After the treatment, the pots are placed in a greenhouse and kept under good growth conditions for the test plants. […] Herbicidal Post-Emergence Action (Post) • Seeds of monocotyledonous and dicotyledonous weed and crop plants are placed in sandy loam in wood-fiber pots, covered with soil and cultivated in a greenhouse under good growth conditions. 2-3 weeks (stages 10-13 according to the BBCH scale) after sowing, the test plants are treated at a height of 5-10 cm. The test compounds, formulated as wettable powders (WP) or emulsion concentrates (EC), are then, with a water application rate of 600-800 l/ha (converted), with 0.1-0.2% of wetting agent added, sprayed at various dosages onto the green parts of the plants.
AVEFA: Avena fatua LOLMU: Lolium multiflorum SETVI: Setaria viridis CHEAL: Chenopodium album VIOTR: Viola tricolor VERPE: Veronica persica ORYSA: Oryza sativa TRZAS: Triticum aestivum ZEAMX: Zea mays ALOMY: Alopecurus myosuroides DIGSA: Digitaria sanguinalis ECHCG: Echinocloa crus-galli SORHA: Sorghum halepense AVESA: Avena sativa AMARE: Amaranthus retroflexus SINAL: Sinapis alba STEME: Stellaria media

Digitaria sanguinalis = assay: Herbicidal post-emergence action, DIGSA; details: 20 g/ha
Outline: (§1)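 Weeds sown in sandy loam, grown in greenhouse 2–3 weeks and treated post-emergence at one-leaf stage (or BBCH 10–13, 5–10 cm) with WP/EC formulations sprayed at various dosages (600–800 l/ha water, 0.1–0.2% wetting agent). Visual rating after about 3 weeks as % activity versus untreated (100% = dead).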

Echinocloa crus-galli = assay: Herbicidal post-emergence action, ECHCG; details: 20 g/ha
Outline: as §1

CCOC(=O)OC1=C(c2c(C)cc(I)cc2CC)C(=O)C2(CCC(OC)CC2)N1 (mixture of isomers) [I-b-2]
effect in % (beetle larvae killed) (Phaedon cochleariae): 83%
effect in % (aphids killed) (Myzus persicae [1]): 100%
% Activity MYZUPE tau (Myzus persicae [2]): 90%
% Activity SETVI (Setaria viridis): 70%
% Activity DIGSA (Digitaria sanguinalis): 90%
% Activity ECHCG (Echinocloa crus-galli): 70%
